Measured values taken from patent US11725010B2, “Polyheterocyclic compounds as METTL3 inhibitors” (Storm Therapeutics Limited, priority 2019, dated 2023).
Like-named read-outs stand apart in the source and are kept apart here.

Experiments:
Caov-3 cells = assay: Caov3 CTG proliferation assay; assay type: cell-based; conditions: Homo sapiens
Experimental: CTG Assay (Caov3 Cell Line)
Upon treatment, Coav-3 cells were incubated for 10 min at RT with the CellTiter-Glo reagent (G7571, Promega). Measurement of the luminescence signal was performed on a microplate reader (Ensight, PerkinElmer).
Caov3 CTG Assay—Proliferation Assay

KASUMI-1 cells = assay: Kasumi cell assay (CellTiter-Glo cell growth); assay type: cell-based; conditions: Homo sapiens
Experimental: Upon treatment, Kasumil cells were incubated for 10 min at RT with the CellTiter-Glo reagent (G7571, Promega). Measurement of the luminescence signal was performed on a microplate reader (Ensight, PerkinElmer).

METTL3/14 = METTL3/14 (Homo sapiens (Human), UniProt Q86U44)
Sequence of METTL3/14 (Q86U44 whole entry): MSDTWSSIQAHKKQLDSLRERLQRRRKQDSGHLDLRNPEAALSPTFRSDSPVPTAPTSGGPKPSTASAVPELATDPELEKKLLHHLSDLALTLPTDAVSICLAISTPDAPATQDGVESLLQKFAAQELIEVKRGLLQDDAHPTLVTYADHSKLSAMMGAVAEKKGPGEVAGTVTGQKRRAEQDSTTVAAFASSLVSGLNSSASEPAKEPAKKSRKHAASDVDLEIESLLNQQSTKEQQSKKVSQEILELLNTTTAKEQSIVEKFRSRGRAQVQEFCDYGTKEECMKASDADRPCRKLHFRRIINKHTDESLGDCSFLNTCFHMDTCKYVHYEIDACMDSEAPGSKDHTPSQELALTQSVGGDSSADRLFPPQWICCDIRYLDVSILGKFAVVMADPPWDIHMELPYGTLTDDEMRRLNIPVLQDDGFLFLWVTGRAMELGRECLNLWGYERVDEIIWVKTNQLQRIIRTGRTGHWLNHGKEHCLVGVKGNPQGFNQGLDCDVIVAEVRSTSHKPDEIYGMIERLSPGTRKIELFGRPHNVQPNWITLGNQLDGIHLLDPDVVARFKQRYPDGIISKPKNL
Sequence of METTL3/14 (Q9HCE5 whole entry partner): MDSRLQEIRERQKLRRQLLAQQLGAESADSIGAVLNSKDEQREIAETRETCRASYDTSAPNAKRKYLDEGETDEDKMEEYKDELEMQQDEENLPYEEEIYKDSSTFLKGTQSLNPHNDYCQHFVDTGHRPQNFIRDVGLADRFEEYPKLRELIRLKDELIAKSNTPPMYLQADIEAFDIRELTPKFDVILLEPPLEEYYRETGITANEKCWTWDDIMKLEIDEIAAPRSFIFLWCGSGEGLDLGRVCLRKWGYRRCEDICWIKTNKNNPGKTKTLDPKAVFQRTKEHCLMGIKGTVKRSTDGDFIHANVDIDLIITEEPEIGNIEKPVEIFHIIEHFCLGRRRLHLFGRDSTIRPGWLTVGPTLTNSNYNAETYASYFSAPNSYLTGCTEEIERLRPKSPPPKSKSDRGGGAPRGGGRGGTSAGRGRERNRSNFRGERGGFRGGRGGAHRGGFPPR

[1] = Caov-3, treated for 120 hours, CellTiter-Glo luminescence, read-out: Caov3 cells IC50
[2] = Caov-3, 120 h, read-out: Caov3 cells IC50 nM
[3] = Kasumi 1, treated for 120 hours, CellTiter-Glo luminescence, read-out: KASUMI1 cells IC50

SMILES | IC50 (Caov-3 cells; [1]) | IC50 (METTL3/14) | further results
O=C(NCc1ccc2cc(CN3CC4CCC3CC4)[nH]c2c1)c1cc(=O)n2ccccc2n1 [Compound 21, N-[[2-(2-azabicyclo[2.2.2]octan-2-ylmethyl)-1H-indol-6-yl]methyl]-4-oxo-pyrido[1,2-a]pyrimidine-2-carboxamide] | 746 nM | – | –
CN(Cc1cc2ccc(CNC(=O)c3cc(=O)n4ccccc4n3)cc2[nH]1)CC1CCC1 [Example 70, N-[[2-[[cyclobutylmethyl(methyl)amino]methyl]-1H-indol-6-yl]methyl]-4-oxo-pyrido[1,2-a]pyrimidine-2-carboxamide] | – | – | IC50 (KASUMI-1 cells; Kasumi 1, 120 h, read-out: KASUMI1 cells IC50 nM): 4900 nM
O=C(NCc1ccc2cc(CNCC3CC(F)(F)C3)[nH]c2c1)c1cc(=O)n2ccccc2n1 [Compound 3, N-[[2-[[(3,3-difluorocyclobutyl)methylamino]methyl]-1H-indol-6-yl]methyl]-4-oxo-pyrido[1,2-a]pyrimidine-2-carboxamide] | – | 6.1 nM | –
O=C(NCc1ccc2cc(CN[C@H]3CCC[C@@H]3O)[nH]c2c1)c1cc(=O)n2ccccc2n1 [Compound 36, N-{[2-({[(1S,2S)-2-hydroxycyclopentyl]amino}methyl)-1H-indol-6-yl]methyl}-4-oxo-4H-pyrido[1,2-a]pyrimidine-2-carboxamide] | – | 6.1 nM | IC50 (Caov-3 cells; [2]): 973 nM
O=C(NCc1ccc2cc(CNCC3(O)CCC3)[nH]c2c1)c1cc(=O)n2ccccc2n1 [Compound 4, N-[[2-[[(1-hydroxycyclobutyl)methylamino]methyl]-1H-indol-6-yl]methyl]-4-oxo-pyrido[1,2-a]pyrimidine-2-carboxamide] | – | 6.1 nM | –
O=C(NCc1ccc2cc(CNC34CC5CC(CC(C5)C3)C4)[nH]c2c1)c1cc(=O)n2ccccc2n1 [Compound 11, N-[[2-[(1-adamantylamino)methyl]-1H-indol-6-yl]methyl]-4-oxo-pyrido[1,2-a]pyrimidine-2-carboxamide] | 607 nM | 6.1 nM | –
c1cc(-c2cn(Cc3ccc4cc(CNCC5CCC5)[nH]c4c3)nn2)c2cn[nH]c2c1 [Example 58, N-(cyclobutylmethyl)-1-[6-[[4-(1H-indazol-4-yl)triazol-1-yl]methyl]-1H-indol-2-yl]methanamine] | 702 nM | 6.1 nM | –
O=c1cc(-c2cn(Cc3ccc4cc(CNCC5CCC5)[nH]c4c3)nn2)nc2ccccn12 [Example 62, 2-[1-[[2-[(cyclobutylmethylamino)methyl]-1H-indol-6-yl]methyl]triazol-4-yl]pyrido[1,2-a]pyrimidin-4-one] | 696 nM | 6.1 nM | –
O=C(NCc1ccc2cc(CNCC3(O)CCCC3)[nH]c2c1)c1cc(=O)n2ccccc2n1 [Compound 15, N-[[2-[[(1-hydroxycyclopentyl)methylamino]methyl]-1H-indol-6-yl]methyl]-4-oxo-pyrido[1,2-a]pyrimidine-2-carboxamide] | 658 nM | 6.1 nM | –
c1cc(-c2cn(Cc3ccc4cc(CNC5CCCC5)[nH]c4c3)nn2)c2cn[nH]c2c1 [Compound 55, N-[[6-[[4-(1H-indazol-4-yl)triazol-1-yl]methyl]-1H-indol-2-yl]methyl]cyclopentanamine] | 764 nM | 6.1 nM | –
N#CC12CC(CNCc3cc4ccc(CNC(=O)c5cc(=O)n6ccccc6n5)cc4[nH]3)(C1)C2 [Compound 111, N-[(2-{[({3-cyanobicyclo[1.1.1]pentan-1-yl}methyl)amino]methyl}-1H-indol-6-yl)methyl]-4-oxo-4H-pyrido[1,2-a]pyrimidine-2-carboxamide] | – | – | IC50 (KASUMI-1 cells; [3]): 2290 nM
O=C(NCc1ccc2cc(CNC3CCCC3)[nH]c2c1)c1cc(=O)n2ccccc2n1 [Compound 26, N-[[2-[(cyclopentylamino)methyl]-1H-indol-6-yl]methyl]-4-oxo-pyrido[1,2-a]pyrimidine-2-carboxamide] | 274 nM | 6.1 nM | –
O=C(NCc1ccc2cc(CNCC3(O)CCCCC3)[nH]c2c1)c1cc(=O)n2ccccc2n1 [Compound 25, N-[[2-[[(1-hydroxycyclohexyl)methylamino]methyl]-1H-indol-6-yl]methyl]-4-oxo-pyrido[1,2-a]pyrimidine-2-carboxamide] | 732 nM | – | –
COc1cnc(C#N)c(-c2cn(Cc3ccc4cc(CNCC56CC(C5)C6)[nH]c4c3)nn2)c1 [Example 148, 3-[1-({2-[({(Bicyclo [1.1.1]pent-1-yl)methyl}amino)methyl]-1H-indol-6-yl}methyl)-1H-1,2,3-triazol-4-yl]-5-methoxy-2-pyridine-carbonitrile] | – | < 6.1 nM | –
c1cc2cc(-c3cn(Cc4ccc5cc(CNCC6CCC6)[nH]c5c4)cn3)cnc2[nH]1 [Example 134, (cyclobutylmethyl)({6-[(4-{1H-pyrrolo[2,3-b]pyridin-5-yl}-1H-imidazol-1-yl)methyl]-1H-indol-2-yl}methyl)amine] | – | 6.1 nM | –
O=C(NCc1ccc2cc(CNCC3CCCC3)[nH]c2c1)c1cc(=O)n2ccccc2n1 [Compound 27, N-[[2-[(cyclopentylmethylamino)methyl]-1H-indol-6-yl]methyl]-4-oxo-pyrido[1,2-a]pyrimidine-2-carboxamide] | 420 nM | 6.1 nM | –

SMILES | IC50 (Caov-3 cells; [1]) | IC50 (METTL3/14) | further results
OC1(CNCc2cc3ccc(Cn4cc(-c5cccc6[nH]ncc56)nn4)cc3[nH]2)CCC1 [Compound 57, 1-[[[6-[[4-(1H-indazol-4-yl)triazol-1-yl]methyl]-1H-indol-2-yl]methylamino]methyl]cyclobutanol] | 1060 nM | 6.1 nM | –
c1cc(-c2nsc(Cc3ccc4cc(CNCC5CCC5)[nH]c4c3)n2)c2cn[nH]c2c1 [Example 65] | – | 16100 nM | –
CC1(CNCc2cc3ccc(CNC(=O)c4cc(=O)n5ccccc5n4)cc3[nH]2)CC1 [Example 6, N-[[2-[[(1-methylcyclopropyl)methylamino]methyl]-1H-indol-6-yl]methyl]-4-oxo-pyrido[1,2-a]pyrimidine-2-carboxamide] | 756 nM | 6.1 nM | –
c1cc(-c2cn(Cc3ccc4cc(CNCC5CCC5)[nH]c4c3)cn2)c2cn[nH]c2c1 [Example 64, N-(cyclobutylmethyl)-1-[6-[[4-(1H-indazol-4-yl)imidazol-1-yl]methyl]-1H-indol-2-yl]methanamine] | 922 nM | – | –
CC1(C)CCN(Cc2cc3ccc(CNC(=O)c4cc(=O)n5ccccc5n4)cc3[nH]2)CC1 [Example 1, N-({2-[(4,4-dimethylpiperidin-1-yl)methyl]-1H-indol-6-yl}methyl)-4-oxo-4H-pyrido[1,2-a]pyrimidine-2-carboxamide] | 260 nM | – | –
O=C(NCc1ccc2cc(CNC3CCCCC3)[nH]c2c1)c1cc(=O)n2ccccc2n1 [Compound 30, N-[[2-[(cyclohexylamino)methyl]-1H-indol-6-yl]methyl]-4-oxo-pyrido[1,2-a]pyrimidine-2-carboxamide] | – | 6.1 nM | –
c1cc2cc(-c3cn(Cc4ccc5cc(CNCC6CCC6)[nH]c5c4)nn3)cnc2[nH]1 [Example 138, (cyclobutylmethyl)({6-[(4-{1H-pyrrolo[2,3-b]pyridin-5-yl}-1H-1,2,3-triazol-1-yl)methyl]-1H-indol-2-yl}methyl)amine] | – | 6.1 nM | –
c1cc(-c2cn(Cc3cnc4cc(CNCC5CCC5)[nH]c4c3)nn2)c2cn[nH]c2c1 [Example 59, N-(cyclobutylmethyl)-1-[6-[[4-(1H-indazol-4-yl)triazol-1-yl]methyl]-1H-pyrrolo[3,2-b]pyridin-2-yl]methanamine] | 524 nM | 6.1 nM | –
O=C(NCc1ccc2cc(CNCC3CCC3)[nH]c2c1)c1cnc2[nH]ccc2c1 [Example 137, N-[(2-{[(cyclobutylmethyl)amino]methyl}-1H-indol-6-yl)methyl]-1H-pyrrolo[2,3-b]pyridine-5-carboxamide] | 1080 nM | 6.1 nM | –
O[C@@H]1CCC[C@@H]1NCc1cc2ccc(Cn3cc(-c4cccc5[nH]ncc45)nn3)cc2[nH]1 [Compound 54, (1R,2S)-2-[[6-[[4-(1H-indazol-4-yl)triazol-1-yl]methyl]-1H-indol-2-yl]methylamino]cyclopentanol] | 837 nM | – | –
CC(C)(C)CNCc1cc2ccc(CNC(=O)c3cc(=O)n4ccccc4n3)cc2[nH]1 [Compound 34, N-[[2-[(2,2-dimethylpropylamino)methyl]-1H-indol-6-yl]methyl]-4-oxo-pyrido[1,2-a]pyrimidine-2-carboxamide] | 988 nM | 6.1 nM | –
O=C(NCc1cnc2cc(CNCC34CC(F)(C3)C4)[nH]c2c1)c1cc(=O)n2ccccc2n1 [Compound 127, N-[(2-{[({3-fluorobicyclo[1.1.1]pentan-1-yl}methyl)amino]methyl}-1H-pyrrolo[3,2-b]pyridin-6-yl)methyl]-4-oxo-4H-pyrido[1,2-a]pyrimidine-2-carboxamide] | 624 nM | 6.1 nM | –
c1cc(-c2cn(Cc3ccc4cc(CNCC5CCC5)[nH]c4c3)nn2)c2cncn2c1 [Example 135, (cyclobutylmethyl)({6-[(4-{imidazo[1,5-a]pyridin-8-yl}-1H-1,2,3-triazol-1-yl)methyl]-1H-indol-2-yl}methyl)amine] | 269 nM | – | –
CC1(C)CN(Cc2cc3ccc(CNC(=O)c4cc(=O)n5ccccc5n4)cc3[nH]2)C1 [Compound 83, N-({2-[(3,3-dimethylazetidin-1-yl)methyl]-1H-indol-6-yl}methyl)-4-oxo-4H-pyrido[1,2-a]pyrimidine-2-carboxamide] | – | – | IC50 (KASUMI-1 cells; [3]): 3680 nM
O=C(NCc1cnc2cc(CNCC3CCC3)[nH]c2c1)c1cc(=O)n2ccccc2n1 [Example 49, N-[[2-[(cyclobutylmethylamino)methyl]-1H-pyrrolo[3,2-b]pyridin-6-yl]methyl]-4-oxo-pyrido[1,2-a]pyrimidine-2-carboxamide] | – | – | IC50 (Caov-3 cells; [2]): 1060 nM
